From BindingDB's records for doi:10.1021/jm010469k (Agouron Pharmaceuticals, 2002)
Each block holds one molecule with its values, some of them ahead of it.

Experiments:
[1] = antirhinoviral activity against Human Rhinovirus Protease 3C (serotype 14)
[2] = antirhinoviral activity against Human Rhinovirus Protease 3C (serotype 10)
[3] = antirhinoviral activity against Human Rhinovirus Protease 3C (serotype 1A)
[4] = antirhinoviral activity against HRV Protease 3CP (serotype 14)
[5] = antirhinoviral activity against HRV Protease 3CP (serotype 1A)
[6] = antirhinoviral activity against HRV Protease 3CP (serotype 10)
[7] = as above; remark: listed apart in the source
[8] = antirhinoviral activity against HRV Protease 3CP (serotype 23)
[9] = antirhinoviral activity against HRV Protease 3CP (serotype 9)
[10] = antirhinoviral activity against HRV Protease 3CP (serotype 13)
[11] = antirhinoviral activity against HRV Protease 3CP (serotype 25)
[12] = antirhinoviral activity against HRV Protease 3CP (serotype 78)
[13] = antirhinoviral activity against HRV Protease 3CP (serotype Hanks)
[14] = antirhinoviral activity against HRV Protease 3CP (serotype 39)
[15] = antirhinoviral activity against HRV Protease 3CP (serotype 16)
[16] = antirhinoviral activity against HRV Protease 3CP (serotype 3)
[17] = antirhinoviral activity against HRV Protease 3CP (serotype 19)
[18] = antirhinoviral activity against HRV Protease 3CP (serotype 2)
[19] = antirhinoviral activity against HRV Protease 3CP (serotype 11)
[20] = antirhinoviral activity against HRV Protease 3CP (serotype 1A); remark: listed apart in the source

Structure (SMILES): CCOC(=O)/C=C/[C@H](CCC(N)=O)NC(=O)[C@H](Cc1ccccc1)n1cccc(NC(=O)OCc2ccccc2)c1=O [(E)-(S)-4-[(S)-2-(3-Benzyloxycarbonylamino-2-oxo-2H-pyridin-1-yl)-3-phenyl-propionylamino]-6-carbamoyl-hex-2-enoic acid ethyl ester]
EC50 [1]: 33 nM | EC50 [2]: 372 nM | EC50 [3]: 1250 nM

Structure (SMILES): CCOC(=O)/C=C/[C@H](C[C@@H]1CCNC1=O)NC(=O)[C@H](Cc1ccccc1)n1cccc(NC(=O)OCc2ccccc2)c1=O [4-[2-(3-Benzyloxycarbonylamino-2-oxo-2H-pyridin-1-yl)-3-phenyl-propionylamino]-5-(2-oxo-pyrrolidin-3-yl)-pent-2-enoic acid ethyl ester]
EC50 [4]: 3 nM

Structure (SMILES): CCOC(=O)/C=C/[C@H](CCC(N)=O)NC(=O)[C@H](Cc1ccc(F)cc1)n1cccc(NC(=O)OCc2ccccc2)c1=O [4-[2-(3-Benzyloxycarbonylamino-2-oxo-2H-pyridin-1-yl)-3-(4-fluoro-phenyl)-propionylamino]-6-carbamoyl-hex-2-enoic acid ethyl ester]
EC50 [5]: 607 nM | EC50 [6]: 111 nM

Structure (SMILES): Cc1cc(C(=O)Nc2cccn([C@@H](Cc3ccc(F)c(F)c3)C(=O)N[C@H](/C=C/C(=O)OC(C)C)C[C@@H]3CCNC3=O)c2=O)no1 [(1S,5S)-4-((S)-3-(3,4-Difluoro-phenyl)-2-{3-[(5-methyl-isoxazole-3-carbonyl)-amino]-2-oxo-2H-pyridin-1-yl}-propionylamino)-5-(2-oxo-pyrrolidin-3-yl)-pent-2-enoic acid isopropyl ester]
EC50 [7]: 85 nM | EC50 [8]: 10 nM | EC50 [9]: 109 nM | EC50 [10]: 44 nM | EC50 [11]: 100 nM | EC50 [12]: 12 nM | EC50 [4]: 3 nM | EC50 [13]: 3 nM | EC50 [14]: 44 nM | EC50 [15]: 36 nM | EC50 [16]: 33 nM | EC50 [17]: 9 nM | EC50 [18]: 48 nM | EC50 [19]: 3 nM | EC50 [20]: 132 nM

Structure (SMILES): CCOC(=O)/C=C/[C@H](CCC(N)=O)NC(=O)[C@H](Cc1ccc(F)c(F)c1)n1cccc(NC(=O)OCc2ccccc2)c1=O [4-[2-(3-Benzyloxycarbonylamino-2-oxo-2H-pyridin-1-yl)-3-(3,4-difluoro-phenyl)-propionylamino]-6-carbamoyl-hex-2-enoic acid ethyl ester]
EC50 [5]: 513 nM | EC50 [6]: 32 nM

Other lines, results leading:

EC50 [5]: 1180 nM | EC50 [6]: 1410 nM
Structure (SMILES): CCOC(=O)/C=C/[C@H](CCC(N)=O)NC(=O)[C@H](Cc1ccccc1)n1cccc(NC(=O)C2SCCS2)c1=O [6-Carbamoyl-4-(2-{3-[([1,3]dithiolane-2-carbonyl)-amino]-2-oxo-2H-pyridin-1-yl}-3-phenyl-propionylamino)-hex-2-enoic acid ethyl ester]

EC50 [5]: 15 nM | EC50 [6]: 4 nM
Structure (SMILES): CCOC(=O)/C=C/[C@H](C[C@@H]1CCNC1=O)NC(=O)[C@H](Cc1ccc(F)cc1)n1cccc(NC(=O)c2cc(C)on2)c1=O [4-(3-(4-Fluoro-phenyl)-2-{3-[(5-methyl-isoxazole-3-carbonyl)-amino]-2-oxo-2H-pyridin-1-yl}-propionylamino)-5-(2-oxo-pyrrolidin-3-yl)-pent-2-enoic acid ethyl ester]

EC50 [5]: 6 nM | EC50 [6]: 5 nM
Structure (SMILES): CCOC(=O)/C=C/[C@H](C[C@@H]1CCNC1=O)NC(=O)[C@H](Cc1ccc(F)c(F)c1)n1cccc(NC(=O)c2cc(C)on2)c1=O [(1S,5S)-4-((S)-3-(3,4-Difluoro-phenyl)-2-{3-[(5-methyl-isoxazole-3-carbonyl)-amino]-2-oxo-2H-pyridin-1-yl}-propionylamino)-5-(2-oxo-pyrrolidin-3-yl)-pent-2-enoic acid ethyl ester]
